Where “and” joins values, the source holds several entries; their conditions need not be identical. Equal entries are not always repeated.
Settings: Diaphragm manometer

[CH3][Sb]([CH3])[C](C)(C)C [tert-butyldimethylantimony]
Settings	vapor or sublimation pressure
248.34 K, Crystal	0.03829 kPa and 0.03817 kPa and 0.03826 kPa
253.33 K, Crystal	0.05845 kPa and 0.05851 kPa and 0.05854 kPa
258.35 K, Crystal	0.08805 kPa and 0.08784 kPa and 0.08807 kPa
263.35 K, Crystal	0.1298 kPa and 0.1299 kPa
268.55 K, Crystal	0.1898 kPa and 0.19 kPa
273.4 K, Crystal	0.2687 kPa and 0.2685 kPa
278.29 K, Crystal	0.374 kPa and 0.3741 kPa
283.32 K, Crystal	0.5167 kPa and 0.5168 kPa and 0.5164 kPa
288.32 K, Liquid	0.7023 kPa and 0.7022 kPa
293.29 K, Liquid	0.9422 kPa and 0.9421 kPa and 0.942 kPa
298.29 K, Liquid	1.251 kPa
303.28 K, Liquid	1.642 kPa
308.27 K, Liquid	2.131 kPa and 2.132 kPa

[CH3][Sb]([CH3])[CH3] [trimethylstibine]
Liquid
Settings	vapor or sublimation pressure
249.24 K	0.9742 kPa and 0.9744 kPa
250.24 K	1.042 kPa
251.23 K	1.113 kPa and 1.112 kPa
252.21 K	1.186 kPa
253.21 K	1.265 kPa and 1.264 kPa
258.19 K	1.73 kPa
263.24 K	2.345 kPa and 2.343 kPa
268.3 K	3.134 kPa and 3.136 kPa
273.35 K	4.143 kPa
278.36 K	5.398 kPa and 5.399 kPa and 5.395 kPa
283.33 K	6.941 kPa and 6.94 kPa and 6.938 kPa
288.27 K	8.822 kPa and 8.821 kPa
290.71 K	9.9 kPa and 9.899 kPa
293.24 K	11.13 kPa
296.22 K	12.74 kPa and 12.73 kPa
